Source: patent publication US11696913B2, “Prolonged ectoparasite-controlling agent for animal” (MITSUI CHEMICALS AGRO, INC., priority 2017, dated 2023)
Like-named read-outs stand apart in the source and are kept apart here.

Legend:
[1] = tested on: Ixodes ricinus; experiment: In vitro contact test with adult hard ticks (Ixodes ricinus); settings: read-out: acaricidal activity; for pest or weed control at 0.2 µg/cm2, 0.2 µg/cm2: dose 0.2 μg/cm^2, 48 h; for pest or weed control at 1 µg/cm2, 1 µg/cm2: dose 1 μg/cm^2, 48 h; for pest or weed control at 5 µg/cm2, 5 µg/cm2: dose 5 μg/cm^2, 48 h
In short: (§1)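 Acaricidal activity = % ticks dead or moribund after 48 h contact with acetone-deposited compound on vial walls (e.g., 900 ppm solution → 5 μg/cm^2). Ambient conditions for R. sanguineus, 21° C./85% rel. hum. for other species; heat challenge at 45-50° C. separated climbers from moribund ticks.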

[2] = tested on: Amblyomma americanum; experiment: In vitro contact test with hard ticks (Amblyomma americanum nymphs); settings: read-out: acaricidal activity; for pest or weed control at 0.2 µg/cm2, 0.2 µg/cm2: dose 0.2 μg/cm^2, 48 h; for pest or weed control at 1 µg/cm2, 1 µg/cm2: dose 1 μg/cm^2, 48 h
In short: as §1

[3] = tested on: Ctenocephalides felis; experiment: Topical treatment in-vivo test with cat flea on rats; settings: topical spot-on
Method: (§2) Topical Treatment In-Vivo Test with American Dog Tick Nymph and Cat Flea on Rats
(§3) Type of study and overall study design: The method is a randomized non-blinded efficacy study in accordance with European animal welfare requirements. Rats (Rattus norvegicus) were randomized based on pre-treatment flea counts. The efficacy of treatment was determined by comparison of the flea and tick counts of different treatment groups versus the placebo-treated control group. The experimental unit was the individual study animal.
(§4) Method and route of administration: The compound was applied in a suitable solvent and carrier (more specifically, added to the following mixture: 33.3% by weight propylene carbonate, […] N-methylpyrrolidone, 0.1% by weight BHA, 0.05% by weight BHT) considering the individual body weight as topical spot-on between the shoulder blades directly onto the skin.
(§5) Experimental infestation: On the day of treatment and weekly thereafter, 30 ticks (D. variabilis nymphs) were released onto the back of each rat, and 30 fleas (C. felis) were released onto the back of each rat 24 h later.
(§6) Tick and Flea counting: Rats were thoroughly examined and ticks and fleas were manually removed 48 h (+4 h) after tick infestation and 24 h after flea infestation. Live fleas and live attached engorged ticks were counted. In non-evident cases, engorgement status was evaluated by squeezing the tick on a filter paper to find traces of blood as sign for engorgement.

[4] = tested on: Rhipicephalus (Boophilus) microplus; experiment: In vitro injection test with Rhipicephalus (Boophilus) microplus (BOOPMI Inj); settings: 168 h, laid fertile eggs after 7 days, read-out: acaricidal activity; for pest or weed control at 32 ng: dose 0.032 μg/animal injected; for pest or weed control at 0.00016 mg: dose 0.16 μg/animal injected; for pest or weed control at 0.0008 mg: dose 0.8 μg/animal injected; for pest or weed control at 6.4 ng: dose 0.0064 μg/animal injected
In short: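 Five engorged adult females each get a 1 μl abdominal injection of compound dissolved and diluted in DMSO. Kept 7 days at 28° C./85% rel. hum.; percent activity rates egg laying and egg fertility (0% all fertile, 100% none laid or infertile).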

[5] = tested on: Ctenocephalides felis; experiment: Systemic treatment in-vivo test with cat flea on rats; settings: Ctenocephalides felis, ip, intraperitoneal injection
In short: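 Rats dosed intraperitoneally per body weight in glycerol formal (up to 25% NMP for poorly soluble compounds). 30 D. variabilis nymphs released on treatment day and weekly, 30 C. felis fleas 24 h later; live attached engorged ticks counted at 48 h (±4 h), live fleas at 24 h, efficacy versus placebo group.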

[6] = tested on: Dermacentor variabilis; experiment: Topical treatment in-vivo test with American dog tick nymph on rats; settings: topical spot-on, 25 mg/kg
Method: as §2, §3, §4, §5, §6

[7] = tested on: Plutella xylostella; experiment: Insecticidal testing against diamondback moth; assay type: in vivo; settings: foliar, 144 h, concentration 100 ppm, cabbage leaf dip, third-stage larvae, after 6 days, read-out: pesticidal rate
Text: Insecticidal Testing Against Diamondback Moth (Plutella xylostella)

[8] = SD 2, read-out: Geometric mean percent reduction in live flea (Ctenocephalides felis) counts compared to untreated control rats
[9] = SD 9, read-out: Geometric mean percent reduction in live flea (Ctenocephalides felis) counts compared to untreated control rats
[10] = SD 16, read-out: Geometric mean percent reduction in live flea (Ctenocephalides felis) counts compared to untreated control rats
[11] = SD 23, read-out: Geometric mean percent reduction in live flea (Ctenocephalides felis) counts compared to untreated control rats
[12] = SD 30, read-out: Geometric mean percent reduction in live flea (Ctenocephalides felis) counts compared to untreated control rats

CN(C(=O)c1ccc(F)cc1)c1cccc(C(=O)Nc2c(I)cc(C(F)(C(F)(F)F)C(F)(F)F)cc2C(F)(F)F)c1F [Compound 24]
pest or weed control at 0.2 µg/cm2, 0.2 µg/cm2 [1]: 90% | pest or weed control at 1 µg/cm2, 1 µg/cm2 [1]: 90% | pest or weed control at 5 µg/cm2, 5 µg/cm2 [1]: 90% | pest or weed control at 0.2 µg/cm2, 0.2 µg/cm2 [2]: 90% | pest or weed control at 1 µg/cm2, 1 µg/cm2 [2]: 90% | Geometric mean percent reduction in live flea (Ctenocephalides felis) counts compared to untreated control rats ([3]; 10 mg/kg, SD 2): 100% | Geometric mean percent reduction in live flea (Ctenocephalides felis) counts compared to untreated control rats ([3]; 10 mg/kg, SD 9): 99% | Geometric mean percent reduction in live flea (Ctenocephalides felis) counts compared to untreated control rats ([3]; 10 mg/kg, SD 16): 97% | Geometric mean percent reduction in live flea (Ctenocephalides felis) counts compared to untreated control rats ([3]; 10 mg/kg, SD 23): 96% | Geometric mean percent reduction in live flea (Ctenocephalides felis) counts compared to untreated control rats ([3]; 10 mg/kg, SD 30): 77% | pest or weed control at 32 ng [4]: 100% | pest or weed control at 0.00016 mg [4]: 100% | pest or weed control at 0.0008 mg [4]: 100% | inhibition in vivo at 5 mg/kg [5, 8]: 100% | inhibition in vivo at 5 mg/kg [5, 9]: 99% | inhibition in vivo at 5 mg/kg [5, 10]: 99% | inhibition in vivo at 5 mg/kg [5, 11]: 36%

CN(C(=O)c1ccc(F)cc1)c1cccc(C(=O)Nc2c(I)cc(C(F)(C(F)(F)F)C(F)(F)C(F)(F)F)cc2C(F)(F)F)c1F (stereo not drawn) [Compound 37]
pest or weed control at 0.2 µg/cm2, 0.2 µg/cm2 [2]: 90% | pest or weed control at 1 µg/cm2, 1 µg/cm2 [2]: 90% | pest or weed control at 6.4 ng [4]: 100% | pest or weed control at 32 ng [4]: 100% | pest or weed control at 0.00016 mg [4]: 100% | pest or weed control at 0.0008 mg [4]: 100% | inhibition in vivo at 10 mg/kg [5, 8]: 100% | inhibition in vivo at 10 mg/kg [5, 9]: 97% | inhibition in vivo at 10 mg/kg [5, 10]: 97% | inhibition in vivo at 10 mg/kg [5, 11]: 100% | inhibition in vivo at 10 mg/kg [5, 12]: 80%

CN(C(=O)c1ccc(F)c(F)c1)c1cccc(C(=O)Nc2c(I)cc(C(F)(C(F)(F)F)C(F)(F)F)cc2C(F)(F)F)c1F [Compound 51]
Geometric mean percent reduction in live tick (Dermacentor variabilis) counts compared to untreated control rats ([6]; SD 2): 82% | Geometric mean percent reduction in live tick (Dermacentor variabilis) counts compared to untreated control rats ([6]; SD 9): 95% | Geometric mean percent reduction in live tick (Dermacentor variabilis) counts compared to untreated control rats ([6]; SD 16): 80% | Geometric mean percent reduction in live tick (Dermacentor variabilis) counts compared to untreated control rats ([6]; SD 23): 73% | Geometric mean percent reduction in live tick (Dermacentor variabilis) counts compared to untreated control rats ([6]; SD 30): 55% | pest or weed control at 1 µg/cm2, 1 µg/cm2 [2]: 90% | Geometric mean percent reduction in live flea (Ctenocephalides felis) counts compared to untreated control rats ([3]; 25 mg/kg, SD 2): 100% | Geometric mean percent reduction in live flea (Ctenocephalides felis) counts compared to untreated control rats ([3]; 25 mg/kg, SD 9): 98% | Geometric mean percent reduction in live flea (Ctenocephalides felis) counts compared to untreated control rats ([3]; 25 mg/kg, SD 16): 91% | Geometric mean percent reduction in live flea (Ctenocephalides felis) counts compared to untreated control rats ([3]; 25 mg/kg, SD 23): 95% | Geometric mean percent reduction in live flea (Ctenocephalides felis) counts compared to untreated control rats ([3]; 25 mg/kg, SD 30): 93% | pest or weed control at 32 ng [4]: 100% | pest or weed control at 0.00016 mg [4]: 100% | pest or weed control at 0.0008 mg [4]: 100% | pest or weed control at 100 ppm [7]: ≥ 70% | inhibition in vivo at 2 mg/kg [5, 8]: 100% | inhibition in vivo at 2 mg/kg [5, 9]: 96% | inhibition in vivo at 2 mg/kg [5, 10]: 67% | inhibition in vivo at 2 mg/kg [5, 11]: 37% | inhibition in vivo at 10 mg/kg [5, 8]: 100% | inhibition in vivo at 10 mg/kg [5, 9]: 100% | inhibition in vivo at 10 mg/kg [5, 10]: 98% | inhibition in vivo at 10 mg/kg [5, 11]: 90% | inhibition in vivo at 10 mg/kg [5, 12]: 90%

CN(C(=O)c1ccc(C(F)(F)F)nc1)c1cccc(C(=O)Nc2c(I)cc(C(F)(C(F)(F)F)C(F)(F)F)cc2C(F)(F)F)c1F [Compound 66, N-(2-fluoro-3-((2-iodo-4-(perfluoropropan-2-yl)-6-(trifluoromethyl)phenyl)carbamoyl)phenyl)-N-methyl-6-(trifluoromethyl)nicotinamide]
pest or weed control at 0.00016 mg [4]: 100% | pest or weed control at 0.0008 mg [4]: 100% | pest or weed control at 100 ppm [7]: ≥ 70% | inhibition in vivo at 10 mg/kg [5, 8]: 100% | inhibition in vivo at 10 mg/kg [5, 9]: 100% | inhibition in vivo at 10 mg/kg [5, 10]: 100% | inhibition in vivo at 10 mg/kg [5, 11]: 100% | inhibition in vivo at 10 mg/kg [5, 12]: 79%

CN(C(=O)c1ccc(F)cc1)c1cccc(C(=O)Nc2c(I)cc(C(F)(C(F)(F)F)C(F)(F)F)cc2OC(F)(F)F)c1F [Compound 74]
pest or weed control at 1 µg/cm2, 1 µg/cm2 [1]: 90% | pest or weed control at 5 µg/cm2, 5 µg/cm2 [1]: 90% | pest or weed control at 0.2 µg/cm2, 0.2 µg/cm2 [2]: 90% | pest or weed control at 1 µg/cm2, 1 µg/cm2 [2]: 90% | pest or weed control at 32 ng [4]: 100% | pest or weed control at 0.00016 mg [4]: 100% | pest or weed control at 0.0008 mg [4]: 100% | pest or weed control at 100 ppm [7]: ≥ 70% | inhibition in vivo at 10 mg/kg [5, 8]: 91% | inhibition in vivo at 10 mg/kg [5, 9]: 96% | inhibition in vivo at 10 mg/kg [5, 10]: 86% | inhibition in vivo at 10 mg/kg [5, 11]: 89% | inhibition in vivo at 10 mg/kg [5, 12]: 78%

CN(C(=O)c1ccc(F)cc1)c1cccc(C(=O)Nc2c(I)cc(C(F)(C(F)(F)F)C(F)(F)C(F)(F)F)cc2OC(F)F)c1F (stereo not drawn) [Compound 103]
pest or weed control at 0.2 µg/cm2, 0.2 µg/cm2 [1]: 90% | pest or weed control at 5 µg/cm2, 5 µg/cm2 [1]: 90% | pest or weed control at 0.2 µg/cm2, 0.2 µg/cm2 [2]: 90% | pest or weed control at 1 µg/cm2, 1 µg/cm2 [2]: 90% | pest or weed control at 6.4 ng [4]: 100% | pest or weed control at 32 ng [4]: 100% | pest or weed control at 0.00016 mg [4]: 100% | pest or weed control at 0.0008 mg [4]: 100% | pest or weed control at 100 ppm [7]: ≥ 70% | inhibition in vivo at 10 mg/kg [5, 8]: 100% | inhibition in vivo at 10 mg/kg [5, 9]: 92% | inhibition in vivo at 10 mg/kg [5, 10]: 70% | inhibition in vivo at 10 mg/kg [5, 11]: 20%

CN(C(=O)c1ccc(F)nc1)c1cccc(C(=O)Nc2c(I)cc(C(F)(C(F)(F)F)C(F)(F)F)cc2C(F)(F)F)c1F [Compound 115, 6-fluoro-N-(2-fluoro-3-((2-iodo-4-(perfluoropropan-2-yl)-6-(trifluoromethyl)phenyl)carbamoyl)phenyl)-N-methylnicotinamide]
pest or weed control at 5 µg/cm2, 5 µg/cm2 [1]: 90% | pest or weed control at 0.2 µg/cm2, 0.2 µg/cm2 [2]: 90% | pest or weed control at 1 µg/cm2, 1 µg/cm2 [2]: 90% | pest or weed control at 32 ng [4]: 100% | pest or weed control at 0.00016 mg [4]: 100% | pest or weed control at 0.0008 mg [4]: 100% | pest or weed control at 100 ppm [7]: ≥ 70% | inhibition in vivo at 2 mg/kg [5, 8]: 100% | inhibition in vivo at 2 mg/kg [5, 9]: 98% | inhibition in vivo at 2 mg/kg [5, 10]: 73% | inhibition in vivo at 10 mg/kg [5, 8]: 100% | inhibition in vivo at 10 mg/kg [5, 9]: 100% | inhibition in vivo at 10 mg/kg [5, 10]: 99% | inhibition in vivo at 10 mg/kg [5, 11]: 47% | inhibition in vivo at 10 mg/kg [5, 12]: 8%

CN(C(=O)c1ccc(C(F)(F)F)nc1)c1cccc(C(=O)Nc2c(I)cc(C(F)(C(F)(F)F)C(F)(F)C(F)(F)F)cc2C(F)(F)F)c1F (stereo not drawn) [Compound 119]
pest or weed control at 1 µg/cm2, 1 µg/cm2 [2]: 90% | pest or weed control at 32 ng [4]: 100% | pest or weed control at 0.00016 mg [4]: 100% | pest or weed control at 0.0008 mg [4]: 100% | pest or weed control at 100 ppm [7]: ≥ 70% | inhibition in vivo at 10 mg/kg [5, 8]: 100% | inhibition in vivo at 10 mg/kg [5, 9]: 97% | inhibition in vivo at 10 mg/kg [5, 10]: 94% | inhibition in vivo at 10 mg/kg [5, 11]: 62% | inhibition in vivo at 10 mg/kg [5, 12]: 44%
